According to ChEMBL document CHEMBL1143999, “A new generation of adenosine receptor antagonists: from di- to trisubstituted aminopyrimidines” (Bioorg Med Chem, 2008):

What was measured:
[1] = target: T1, Adenosine receptor A2a (Homo sapiens, UniProt P29274); experiment: Displacement of [3H]ZM-241385 from human adenosine A2A receptor expressed in HEK293 cells at 1 uM; format: cell-based
[2] = target: T2, Adenosine receptor A1 (Homo sapiens, UniProt P30542); experiment: biochemical
T2 sequence (P30542 whole entry): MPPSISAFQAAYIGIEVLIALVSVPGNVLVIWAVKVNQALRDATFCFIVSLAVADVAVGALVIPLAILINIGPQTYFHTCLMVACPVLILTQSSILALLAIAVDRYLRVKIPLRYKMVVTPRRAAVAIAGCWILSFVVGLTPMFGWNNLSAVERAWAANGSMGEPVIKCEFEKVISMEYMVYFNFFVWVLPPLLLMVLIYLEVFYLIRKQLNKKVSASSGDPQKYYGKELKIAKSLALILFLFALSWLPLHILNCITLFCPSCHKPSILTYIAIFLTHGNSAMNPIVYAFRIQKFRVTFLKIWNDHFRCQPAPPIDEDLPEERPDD

[3] = target: T1, Adenosine receptor A2a; experiment: biochemical
[4] = target: T3, Adenosine receptor A3 (Homo sapiens, UniProt P0DMS8); experiment: biochemical
T3 sequence (P0DMS8 whole entry): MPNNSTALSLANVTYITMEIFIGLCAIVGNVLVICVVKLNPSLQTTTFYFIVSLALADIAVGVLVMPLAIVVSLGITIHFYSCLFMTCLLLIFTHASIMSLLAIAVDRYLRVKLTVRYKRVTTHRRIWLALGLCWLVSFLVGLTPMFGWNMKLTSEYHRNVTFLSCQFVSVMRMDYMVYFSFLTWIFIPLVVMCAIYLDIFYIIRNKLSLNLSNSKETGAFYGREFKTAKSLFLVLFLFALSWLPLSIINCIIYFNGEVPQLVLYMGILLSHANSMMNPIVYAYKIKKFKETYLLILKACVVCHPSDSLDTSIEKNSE
Description: Displacement of [3H]AB-MECA from human adenosine A3 receptor expressed in HEK293 cells

[5] = target: T4, Adenosine receptor A1 (Homo sapiens) (UniProt P30542); experiment: Displacement of [3H]DPCPX from human adenosine A1 receptor expressed in CHO cells at 1 uM; format: cell-based
T4 sequence (whole entry): T2 sequence (P30542 whole entry)

[6] = target: T4, Adenosine receptor A1 (Homo sapiens); experiment: (§1) Activity at human adenosine A1 receptor expressed in CHO cells assessed as inhibition of CPA-induced decrease in forskolin-stimulated cAMP production by TR-FRET assay; format: functional, cell-based
[7] = target: T2, Adenosine receptor A1; experiment: as §1; format: functional, cell-based

T1 sequence (P29274 whole entry): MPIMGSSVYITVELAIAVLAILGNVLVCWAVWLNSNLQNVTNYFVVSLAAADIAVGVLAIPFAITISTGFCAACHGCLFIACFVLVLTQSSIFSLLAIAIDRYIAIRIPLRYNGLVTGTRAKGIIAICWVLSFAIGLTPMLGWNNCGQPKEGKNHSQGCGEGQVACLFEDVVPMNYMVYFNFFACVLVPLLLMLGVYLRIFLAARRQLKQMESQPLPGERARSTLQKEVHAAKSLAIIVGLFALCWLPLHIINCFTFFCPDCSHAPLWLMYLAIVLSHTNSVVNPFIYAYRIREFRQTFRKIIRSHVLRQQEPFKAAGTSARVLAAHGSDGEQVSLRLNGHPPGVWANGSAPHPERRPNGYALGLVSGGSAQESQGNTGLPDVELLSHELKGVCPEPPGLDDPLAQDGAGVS

SMILES	Ki [2]	Ki [3]	other results
CCCC(=O)Nc1nc(-c2ccccc2)nc(-c2ccc3c(c2)OCO3)c1C#N	13.4 nM	–	Activity [1]: 23%
N#Cc1c(-c2ccccc2)nc(N)nc1-c1ccccc1	–	22.7 nM	–
N#Cc1c(N)nc(-c2ccccc2)nc1-c1ccccc1	10.8 nM	19 nM	–
O=C(Nc1cc(-c2ccc3c(c2)OCO3)nc(-c2ccccc2)n1)C1CCCC1	17.3 nM	339 nM	Ki [4]: 186 nM
N#Cc1c(-c2ccccc2)nc(NC(=O)c2ccc(Cl)c(Cl)c2)nc1-c1ccccc1	–	–	Activity [5]: 58%; Activity [1]: 35%
N#Cc1c(NC(=O)C2CCCC2)nc(-c2ccccc2)nc1-c1ccc2c(c1)OCO2	–	–	Kb [6]: 28 nM; IC50 [7]: 1400 nM
CCC(CC)C(=O)Nc1nc(-c2ccccc2)c(C#N)c(-c2ccccc2)n1	6.4 nM	54.5 nM	–
N#Cc1c(-c2ccccc2)nc(NC(=O)C2CC2)nc1-c1ccccc1	9.4 nM	45.5 nM	–
CCCC(=O)Nc1nc(-c2ccccc2)c(C#N)c(-c2ccccc2)n1	2.9 nM	48.2 nM	–
CCCC(=O)Nc1cc(-c2ccc3c(c2)OCO3)nc(-c2ccccc2)n1	6.8 nM	222 nM	Ki [4]: 53.9 nM
Nc1nc(-c2ccccc2)cc(-c2ccccc2)n1	17.7 nM	–	–
N#Cc1c(-c2ccccc2)nc(NC(=O)C2CCCC2)nc1-c1ccc2c(c1)OCO2	2.8 nM	27.2 nM	–
CCC(CC)C(=O)Nc1cc(-c2ccc3c(c2)OCO3)nc(-c2ccccc2)n1	27.9 nM	574 nM	Ki [4]: 634 nM
CCCC(=O)Nc1nc(-c2ccccc2)c(C#N)c(-c2ccc3c(c2)OCO3)n1	8.3 nM	21.3 nM	–
N#Cc1c(-c2ccccc2)nc(NC(=O)C2CCCC2)nc1-c1ccccc1	1.2 nM	159 nM	Kb [6]: 3 nM; IC50 [7]: 150 nM
N#Cc1c(-c2ccccc2)nc(N)nc1-c1ccc2c(c1)OCO2	–	5.2 nM	–
N#Cc1c(N)nc(-c2ccccc2)nc1-c1ccc2c(c1)OCO2	4.9 nM	44.3 nM	–

SMILES	Ki [2]	Ki [3]	other results
N#Cc1c(-c2ccccc2)nc(NC(=O)c2ccc(Cl)cc2)nc1-c1ccccc1	92.3 nM	32.9 nM	–
N#Cc1c(-c2ccccc2)nc(NC(=O)c2ccccc2)nc1-c1ccccc1	–	–	Activity [5]: 38%; Activity [1]: 48%
CCCC(=O)Nc1nc(-c2ccccc2)cc(-c2ccc3c(c2)OCO3)n1	43 nM	–	Activity [1]: 8%
Cc1ccc(C(=O)Nc2nc(-c3ccccc3)c(C#N)c(-c3ccccc3)n2)cc1	115 nM	158 nM	–
CC(C)C(=O)Nc1nc(-c2ccccc2)c(C#N)c(-c2ccccc2)n1	2.9 nM	35.3 nM	–
O=C(Nc1nc(-c2ccccc2)cc(-c2ccc3c(c2)OCO3)n1)C1CCCC1	8.1 nM	–	Activity [1]: 26%
COc1ccc(C(=O)Nc2nc(-c3ccccc3)c(C#N)c(-c3ccccc3)n2)cc1	102 nM	300 nM	–
N#Cc1c(-c2ccccc2)nc(NC(=O)c2ccco2)nc1-c1ccccc1	–	–	Activity [5]: 26%; Activity [1]: 42%
Nc1nc(-c2ccccc2)cc(-c2ccc3c(c2)OCO3)n1	–	381 nM	–
N#Cc1c(NC(=O)C2CC2)nc(-c2ccccc2)nc1-c1ccccc1	27.9 nM	49.8 nM	–
CCC(CC)C(=O)Nc1nc(-c2ccccc2)nc(-c2ccc3c(c2)OCO3)c1C#N	18.4 nM	–	Activity [1]: 0%
OC[C@H]1O[C@@H](n2cnc3c(NC4CCCC4)ncnc32)[C@H](O)[C@@H]1O [N6-CYCLOPENTYLADENOSINE]	–	1650 nM	–
N#Cc1c(NC(=O)C2CCCC2)nc(-c2ccccc2)nc1-c1ccccc1	5.3 nM	280 nM	–
CCCC(=O)Nc1nc(-c2ccccc2)nc(-c2ccccc2)c1C#N	12.6 nM	69.5 nM	–
O=C(Nc1cc(-c2ccc3c(c2)OCO3)nc(-c2ccccc2)n1)C1CC1	13 nM	69.2 nM	Ki [4]: 30.7 nM
CCC(CC)C(=O)Nc1nc(-c2ccccc2)cc(-c2ccc3c(c2)OCO3)n1	17.6 nM	–	Activity [1]: 33%
